This note sets out measurements from US20080145313A1, “Compositions and Methods for the Treatment and Prevention of Neoplastic Disorders” (Genesis Research & Development Corporation Limited, priority 2006, published 2008).

For this data set, the system named is A549 cells. The data set can be described thus: Growth inhibition of siRNA-transfected A549 cells, SYBR Green I DNA content. It is filed as cell-based, human. The settings on record: 10 nM siRNA, DNA content 96 hours after transfection; for Growth Inhibition in A549 cells by 10 nM siRNA: transporter gene targets. How it is done:
A549 cells (human lung cancer cell line; ATCC No. CCL-185), SK-MeI-5 cells (human melanoma cell line; ATCC No. HTB-70), MCF-7 cells (human adenocarcinoma cell line; ATCC No. HTB-22), HCT-116 cells (colorectal carcinoma; ATCC CCL-247) and HCT-116 p53 null cells (derived from ATCC No. CCL-247; Bunz et al., Science 282:1497-1501, 1998) were cultured in RPMI 1640 medium with 10% v/v heat-inactivated fetal calf serum (FCS). Cells were seeded at a density of 5×10^4 cells/cm^2 in multi-well tissue culture plates. Sequences of Stealth™ siRNA duplexes (Invitrogen) targeting human ribonucleotide reductase subunit 1 (SEQ ID NO: 22) and subunit 2 (SEQ ID NO; 38) are given in SEQ ID NO: 4830-4832 (DNA), and SEQ ID NO: 5136-5138 (RNA) for RRM1, and SEQ ID NO: 5306-5308 (DNA), and SEQ ID NO: 5303-5305 (RNA) for RRM2. siRNAs were transfected at different concentrations into cells using Lipofectamine™ RNAiMAX transfection reagent (Invitrogen). Non-specific siRNA (SEQ ID NO: 4804 and 4805 (DNA), and SEQ ID NO: 5301 and 5302 (RNA)) were used as controls. The cellular DNA content was measured using a SYBR Green I-based fluorometric assay at 24, 48, 72 and 96 hours after transfection (120 hours for the MCF-7 cells), as follows. At the indicated time points following reverse transfection, cells were harvested and frozen at −80° C. overnight. Cells were thawed and cell lysis buffer (phosphate-buffered saline (PBS) containing 1% Triton X-100, pH 7) and SYBR Green I (1:10^5 V/V; Invitrogen) was added to the wells and incubated overnight in the dark at 4° C.
The following day, cell lysates were mixed thoroughly, and DNA fluorescence was measured with a Wallac Victor^2 plate reader (Turku, Finland) set at an excitation frequency of 485 nm and measuring emission at 535 nm.
To determine the duration of the knock-down effect of RRM1-targeting siRNA, A549 cells were reverse transfected with 1 or 10 nM RRM1-3 (SEQ ID NO: 4832 (DNA, and SEQ ID NO: 5138 (RNA)) or control siRNA (SEQ ID NO: 4804 (DNA), and SEQ ID NO: 5301 (RNA)), and growth followed over time. Growth inhibition was measured daily as described above for up to ten days. RRM1-3-mediated RRM1 silencing inhibited growth for at least 10 days post-transfection at both 1 and 10 nM (FIG. 11).
siRNA-mediated inhibition of cancer cell growth was determined in A549 cells as follows. A549 cells (human lung cancer cell line; ATCC No. CCL-185) were cultured in RPMI 1640 medium with 10% v/v heat-inactivated fetal calf serum. Cells were seeded at a density of 5×10^3 cells/cm^2 in multi-well tissue culture plates. Stealth™ siRNA duplexes (Invitrogen) targeting genes involved in cancer energy and metabolism pathways and listed in Table 9, were transfected at 10 nM into cells using Lipofectamine™ RNAiMAX transfection reagent (Invitrogen). Non-specific siRNA (SEQ ID NO: 4804 and 4805 (DNA), and SEQ ID NO: 5301 and 5302 (RNA)) were used as controls. The cellular DNA content was measured using a SYBR Green I-based fluorometric assay at 96 hours after transfection. The cells were harvested and frozen at −80° C. overnight. Cells were thawed and cell lysis buffer (phosphate-buffered saline (PBS) containing 1% Triton X-100, pH 7) and SYBR Green I (1:10^5 v/v; Invitrogen) was added to the wells and incubated overnight in the dark at 4° C. The following day, cell lysates were mixed thoroughly, and DNA fluorescence was measured with a Wallac Victor^2 plate reader (Turku, Finland) set at an excitation frequency of 485 nm and measuring emission at 535 nm.
Three different siRNAs were tested for each target gene. The average fluorescence units from three replicate wells, representing the amount of DNA per well, were used to determine the effect on growth inhibition. The results are given in Table 10 (energy and metabolism gene targets) and Table 11 (transporter gene targets).
siRNA-mediated RNAi was also determined on a panel of different cell lines. […]

On to “SEQ ID NO: 4980: siRNA targeting ABCB1 (MDR1) (chain 1 TTCACCAAATGTGACATTTCCTTCC; chain 2 UUCACCAAAUGUGACAUUUCCUUCC; chemistry not given here; one strand in two spellings)”, for which the “Growth Inhibition in A549 cells by 10 nM siRNA” value is “− (no growth inhibition)”.
On to “SEQ ID NO: 4842: siRNA targeting NADSYN (chain 1 TAGCTGATCTGGTTCACGATGGTGC; chain 2 UAGCUGAUCUGGUUCACGAUGGUGC; chemistry not given here; one strand in two spellings)”, for which the “Growth Inhibition in A549 cells” value is “+ (inhibits by at least 50%)”.
For the substance “SEQ ID NO: 4950: siRNA targeting ATP6V1A (chain 1 TTTCATGGAGGAAAGTTTATAGAGG; chain 2 UUUCAUGGAGGAAAGUUUAUAGAGG; chemistry not given here; one strand in two spellings)”, the “Growth Inhibition in A549 cells by 10 nM siRNA” value was “− (no growth inhibition)”.
“SEQ ID NO: 4944: siRNA targeting ATP2B3 (PMCA3) (chain 1 AAAGCTTGTCTTCCGGGATCTGCTC; chain 2 AAAGCUUGUCUUCCGGGAUCUGCUC; chemistry not given here; one strand in two spellings)”: the “Growth Inhibition in A549 cells by 10 nM siRNA” value is on record as “− (no growth inhibition)”.
On to “SEQ ID NO: 4862: siRNA targeting SLC25A5 (ANT2) (chain 1 AGAACATTGGACCATGCACCCTTGA; chain 2 AGAACAUUGGACCAUGCACCCUUGA; Both strands are one antisense strand in DNA/RNA notation, chemistry not given here, further chemistry not given here; one strand in two spellings)”, for which the “Growth Inhibition in A549 cells” value was “− (no growth inhibition with any siRNA)”.
For the substance “SEQ ID NO: 4851: siRNA targeting ATP5B (chain 1 TTTCCATGAACTCTGGAGCCTCAGC; chain 2 UUUCCAUGAACUCUGGAGCCUCAGC; Both strands are one antisense strand in DNA/RNA notation, chemistry not given here, further chemistry not given here; one strand in two spellings)”, the “Growth Inhibition in A549 cells” value was “− (no growth inhibition with any siRNA)”.
Same read-out and setting: to “SEQ ID NO: 4875: siRNA targeting CTPS (chain 1 AATAACACACACTTGAGGTTCCAGG; chain 2 AAUAACACACACUUGAGGUUCCAGG; Both strands are one antisense strand in DNA/RNA notation, chemistry not given here, further chemistry not given here; one strand in two spellings)” belongs “++ (inhibits by at least 75%)”.
With “SEQ ID NO: 4990: siRNA targeting TK1 (chain 1 GACATCATGGAGTTCTGCGAGGCCA; chain 2 GACAUCAUGGAGUUCUGCGAGGCCA; chemistry not given here; one strand in two spellings)”, the “Growth Inhibition in A549 cells” value is listed as “− (no growth inhibition with any siRNA)”.
For “SEQ ID NO: 4949: siRNA targeting ATP6V1A (chain 1 TATAAATAGAGGCTTCTCTAGCAGC; chain 2 UAUAAAUAGAGGCUUCUCUAGCAGC; chemistry not given here; one strand in two spellings)”, the “Growth Inhibition in A549 cells by 10 nM siRNA” value is “− (no growth inhibition)”.
Turning to “SEQ ID NO: 4826: siRNA targeting CPS1 (chain 1 TTCCCAAGCATGGTACCCTTATCCC; chain 2 UUCCCAAGCAUGGUACCCUUAUCCC; chemistry not given here; one strand in two spellings)”, the “Growth Inhibition in A549 cells” value is listed as “− (no growth inhibition with any siRNA)”.
“SEQ ID NO: 4841: siRNA targeting AK1 (chain 1 AAACTCTTCTCCTTGCTGCACCTCC; chain 2 AAACUCUUCUCCUUGCUGCACCUCC; chemistry not given here; one strand in two spellings)”: the “Growth Inhibition in A549 cells” value is “− (no growth inhibition with any siRNA)”.
In the case of “SEQ ID NO: 4991: siRNA targeting TK1 (chain 1 GCACTGGATGGGACCTTCCAGAGGA; chain 2 GCACUGGAUGGGACCUUCCAGAGGA; chemistry not given here; one strand in two spellings)”, the “Growth Inhibition in A549 cells” value is on record as “− (no growth inhibition with any siRNA)”.
Regarding “SEQ ID NO: 4808: siRNA targeting ARNT (HIF-1β) (chain 1 TCTCATGGAAGACTGCTGACCTTCC; chain 2 UCUCAUGGAAGACUGCUGACCUUCC; chemistry not given here; one strand in two spellings)”, the “Growth Inhibition in A549 cells” value was “− (no growth inhibition with any siRNA)”.
Regarding “SEQ ID NO: 4811: siRNA targeting H6PD (G6PDH) (chain 1 TTATGGAGACATGTCCCTGGAGCTC; chain 2 UUAUGGAGACAUGUCCCUGGAGCUC; chemistry not given here; one strand in two spellings)”, the “Growth Inhibition in A549 cells” value is recorded as “− (no growth inhibition with any siRNA)”.
As to “SEQ ID NO: 4867: siRNA targeting UQCRC2 (chain 1 AAATGCATTTGCCTCTGCACTTCCC; chain 2 AAAUGCAUUUGCCUCUGCACUUCCC; Both strands are one antisense strand in DNA/RNA notation, chemistry not given here, further chemistry not given here; one strand in two spellings)”, the “Growth Inhibition in A549 cells” value is “− (no growth inhibition with any siRNA)”.
For the substance “SEQ ID NO: 4988: siRNA targeting DCK (chain 1 GCAAGGCATTCCTCTTGAATATTTA; chain 2 GCAAGGCAUUCCUCUUGAAUAUUUA; Both strands are one antisense strand in DNA/RNA notation, chemistry not given here, further chemistry not given here; one strand in two spellings)”, the “Growth Inhibition in A549 cells” value is reported as “− (no growth inhibition with any siRNA)”.
For the substance “SEQ ID NO: 4986: siRNA targeting DCK (chain 1 ACGATCTGTGTATAGTGACAGGTAT; chain 2 ACGAUCUGUGUAUAGUGACAGGUAU; Both strands are one antisense strand in DNA/RNA notation, chemistry not given here, further chemistry not given here; one strand in two spellings)”, the “Growth Inhibition in A549 cells” value is listed as “− (no growth inhibition with any siRNA)”.
With “SEQ ID NO: 4941: siRNA targeting ATP2B2 (PMCA2) (chain 1 ATCTGTGTCTGGATCCGATTCAGGC; chain 2 AUCUGUGUCUGGAUCCGAUUCAGGC; chemistry not given here; one strand in two spellings)”, the “Growth Inhibition in A549 cells by 10 nM siRNA” value was “+ (inhibits by at least 50%)”.
Consider “SEQ ID NO: 4942: siRNA targeting ATP2B2 (PMCA2) (chain 1 TTCCAGGTCGGTGTCATCAATGAGG; chain 2 UUCCAGGUCGGUGUCAUCAAUGAGG; chemistry not given here; one strand in two spellings)”, for which the “Growth Inhibition in A549 cells by 10 nM siRNA” value is recorded as “− (no growth inhibition)”.
